This is an account of results in patent US11618747B2, “LXR modulators with bicyclic core moiety” (OrsoBio, Inc., priority 2018, dated 2023).

By EC50 is commonly meant the concentration that produces a half-maximal response.

For assay [1], the target named is T1, ligand-binding domain (LBD) of LXRβ (Homo sapiens, UniProt P55055, DUP175-175).
T1 construct: LXRβ (amino acids 156-461); expressed in transfected cells; host or cells: HEK293
T1 sequence (P55055 with tags, fused parts or gaps DUP175-175 limits assumed): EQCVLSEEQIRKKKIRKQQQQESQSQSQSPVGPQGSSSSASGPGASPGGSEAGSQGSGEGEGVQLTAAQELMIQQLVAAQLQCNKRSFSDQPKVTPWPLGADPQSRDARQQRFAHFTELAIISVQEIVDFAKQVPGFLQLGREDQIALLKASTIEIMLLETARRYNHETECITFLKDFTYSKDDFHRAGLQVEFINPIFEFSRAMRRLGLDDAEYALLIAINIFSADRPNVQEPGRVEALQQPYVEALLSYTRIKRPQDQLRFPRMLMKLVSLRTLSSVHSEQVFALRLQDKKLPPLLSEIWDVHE
Put plainly: LXR Gal4 reporter transient transfection assay (LBD-M2H Gal4β). It is filed as cell-based. As to conditions: HEK293 cells, LXRβ LBD; read-out: LBD-M2H Gal4β (EC50 range). As for the experimental part: (§1) The tested compounds were usually dissolved, tested and stored as 20 mM stock solutions in DMSO. Since sulfonyl acetic acid derivatives tend to decarboxylate under these conditions, these stock solutions were prepared, tested and stored as 20 mM DMSO stock solutions containing 100 mM trifluoroacetic Acid (5 equivalents). Sulfonyl acetic acid derivatives are shelf stable as solid at rt for long time as reported by Griesbrecht et al. (Synlett 2010:374) or Faucher et al. (J. Med. Chem. 2004; 47:18).
(§2) LXR Gal4 Reporter Transient Transfection Assays
(§3) LXRα and LXRβ activity status was determined via detection of interaction with coactivator and corepressor proteins in mammalian two-hybrid experiments (M2H). For this, via transient transfection the full length (FL) proteins of LXRα (amino acids 1-447; NP005684; SEQ ID NO:1) or LXRβ-(amino acids 1-461; NP009052; SEQ ID NO:2) or the ligand-binding domains (LBD) of LXRα (amino acids 155-447 SEQ ID NO:3) or LXRβ (amino acids 156-461; SEQ ID NO:4) were expressed from pCMV-AD (Stratagene) as fusions to the transcriptional activation domain of NFkB. As cofactors, domains of either the steroid receptor coactivator 1 (SRC1; amino acids 552-887; SEQ ID NO:5) or of the corepressor NCoR (amino acids 1906-2312; NP006302; SEQ ID NO:6) were expressed as fusions to the DNA binding domain of the yeast transcription factor GAL4 (from pCMV-BD; Stratagene). Interaction was monitored via activation of a coexpressed Firefly Luciferase Reporter gene under control of a promoter containing repetitive GAL4 response elements (vector pFRLuc; Stratagene). Transfection efficiency was controlled via cotransfection of constitutively active pRL-CMV Renila reniformis luciferase reporter (Promega). HEK293 cells were grown in minimum essential medium (MEM) with 2 mM L-glutamine and Earle's balanced salt solution supplemented with 8.3% fetal bovine serum, 0.1 mM non-essential amino acids, 1 mM sodium pyruvate, at 37° C. in 5% CO2. 3.5×10^4 cells/well were plated in 96-well cell culture plates in growth medium supplemented with 8.3% fetal bovine serum for 16-20 h to ˜90% confluency. For transfection, medium was taken off and LXR and cofactor expressing plasmids as well as the reporter plasmids are added in 30 μL OPTIMEM/well including polyethylene-imine (PEI) as vehicle. Typical amounts of plasmids transfected/well: pCMV-AD-LXR (5 ng), pCMV-BD-cofactor (5 ng), pFR-Luc (100 ng), pRL-CMV (0.5 ng). Compound stocks were prepared in DMSO, prediluted in MEM to a total volume of 120 μL, and added 4 h after addition of the transfection mixture (final vehicle concentration not exceeding 0.2%). Cells were incubated for additional 16 h, lysed for 10 min in 1× Passive Lysis Buffer (Promega) and Firefly and Renilla luciferase activities were measured sequentially in the same cell extract using buffers containing D-luciferine and coelenterazine, respectively. Measurements of luminescence were done in a BMG-luminometer.

Assay [2] addresses T2, ligand-binding domain (LBD) of LXRα (Homo sapiens, UniProt Q13133).
T2 construct: expressed in transfected cells; host or cells: HEK293
T2 sequence (Q13133 155-447): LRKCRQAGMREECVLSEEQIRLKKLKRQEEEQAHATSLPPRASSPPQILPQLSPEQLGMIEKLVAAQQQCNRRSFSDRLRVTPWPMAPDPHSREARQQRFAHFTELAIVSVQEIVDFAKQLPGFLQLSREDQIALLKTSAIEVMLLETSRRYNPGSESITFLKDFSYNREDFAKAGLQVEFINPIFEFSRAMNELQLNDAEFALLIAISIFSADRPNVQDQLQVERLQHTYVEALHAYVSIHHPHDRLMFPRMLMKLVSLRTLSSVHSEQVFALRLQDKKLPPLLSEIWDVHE
Kind of assay: LXR Gal4 reporter transient transfection assay (LBD-M2H Gal4α). Type of assay: cell-based. As to conditions: HEK293 cells, LXRα LBD; read-out: LBD-M2H Gal4α (EC50 range). On the procedure: as §1, §2, §3

Assay [3] deals with T3, LXRβ ligand-binding domain (Homo sapiens, UniProt P55055, DUP175-175).
T3 construct: amino acids 156-461; NP009052; made in house; host or cells: E. coli
T3 sequence (P55055 with tags, fused parts or gaps DUP175-175 limits assumed): T1 sequence (P55055 with tags, fused parts or gaps DUP175-175 limits assumed)
Kind of assay: TR-FRETβ activity assay (NCoA3 coactivator peptide recruitment). Type of assay: biochemical. As to conditions: TR-FRET, 1 μM 24(S)-25-epoxycholesterol prestimulation; read-out: FRETβ (EC50 range). In short, it runs like this: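 GST-tagged human LXRβ LBD (aa 156-461, E. coli) at 76 nM with 400 nM biotinylated NCoA3 peptide in Tris/HCl pH 6.8, 240 mM KCl, BSA, 0.002% Triton-X-100, plus 1 μM 24(S)-25-epoxycholesterol as prestimulating agonist. Compounds at 50 μM down to 0.002 μM, 1 h at 4 °C. Coactivator recruitment by TR-FRET (Tb cryptate/XL665, 615/665 nm), triplicates.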
On the technique in general: TR-FRET usually uses a lanthanide donor and a delayed reading to cut background.

SMILES strings stand for the structures. Some results are limits rather than exact numbers.

In the case of `O=S(=O)(c1ccc(Cl)cc1)n1c(-c2cccs2)c(-c2ccsc2C(F)F)c2ccccc21` [20/3], the figures for the EC50 in assay [1], in assay [2] and in assay [3] were below 0.1 µM, below 0.1 µM and 0.1 to 1 µM, respectively.

`Cc1ccc(S(=O)(=O)n2c(-c3ccsc3)c(-c3ccsc3C#N)c3ccccc32)cc1` [1/23]: the EC50 was below 0.1 µM in assay [1], below 0.1 µM in assay [2] and 0.1 to 1 µM in assay [3].

For `N#Cc1sccc1-c1c(-c2cccs2)n(S(=O)(=O)c2ccc(F)cc2F)c2ccccc12` [20/12], the concentration giving a half-maximal response (EC50) was below 0.1 µM in assay [1], below 0.1 µM in assay [2] and 1 to 10 µM in assay [3].

In the case of `N#Cc1sccc1-c1c(-c2cccc(OCC(=O)O)c2)n(S(=O)(=O)c2ccc(Cl)cc2)c2ccccc12` [3/51], the EC50 is 0.1 to 1 µM in assay [1], 0.1 to 1 µM in assay [2] and 1 to 10 µM in assay [3].

On to `N#Cc1c(OCC(=O)O)cccc1-c1c(-c2cccs2)n(S(=O)(=O)c2ccc(Cl)cc2)c2ccccc12` [21/2], for which the EC50 in assay [1], in assay [2] and in assay [3] was 1 to 10 µM in each case.

`N#Cc1sccc1-c1c(-c2ccccc2)n(S(=O)(=O)c2ccc(Cl)cc2)c2ccccc12` [Example 26, 3-(1-((4-Chlorophenyl)sulfonyl)-2-phenyl-1H-indol-3-yl)thiophene-2-carbonitrile]: the values for the EC50 in assay [1], in assay [2] and in assay [3] were below 0.1 µM, below 0.1 µM and 0.1 to 1 µM, respectively.

As to `COc1ccc(S(=O)(=O)n2c(-c3ccccc3)c(-c3ccsc3C)c3ccccc32)cc1` [20/21], the EC50 is below 0.1 µM in assay [1], 0.1 to 1 µM in assay [2] and 1 to 10 µM in assay [3].

For the compound `N#Cc1sccc1-c1c(-c2cccc(N3CC(C(=O)O)C3)c2)n(S(=O)(=O)c2ccccc2)c2ccc(F)cc12` [3/9], the results for the EC50 in assay [1], in assay [2] and in assay [3] were below 0.1 µM, 0.1 to 1 µM and 1 to 10 µM, respectively.

With `Cc1ccc(S(=O)(=O)n2c(-c3cccc(/C=C/C(=O)O)c3)c(-c3ccsc3C#N)c3ccccc32)cc1` [3/18], the EC50 in assay [1] is below 0.1 µM; in assay [2], 0.1 to 1 µM; in assay [3], 1 to 10 µM.

On to `N#Cc1sccc1-c1c(-c2ccc(F)cc2)n(S(=O)(=O)c2ccc(Cl)cc2)c2ccccc12` [26/1], for which the EC50 in assay [1] is below 0.1 µM; in assay [2] it was 0.1 to 1 µM; in assay [3], 1 to 10 µM.

As to `N#Cc1sccc1-c1c(-c2cccc(N3CC(C(=O)O)C3)n2)n(S(=O)(=O)c2ccc(Cl)cc2)c2ccccc12` [30/6], the values for the EC50 in assay [1], in assay [2] and in assay [3] were 0.1 to 1 µM, 0.1 to 1 µM and 1 to 10 µM, respectively.

As for `COc1ccc(S(=O)(=O)n2c(-c3ccccc3)c(-c3ccsc3OC)c3ccccc32)cc1` [20/22], the EC50 in assay [1], in assay [2] and in assay [3] was 0.1 to 1 µM each time.

Consider `N#Cc1sccc1-c1c(-c2cccs2)n(S(=O)(=O)c2ccc(Cl)cc2)c2ccccc12` [20/13], for which the EC50 was below 0.1 µM in assay [1], below 0.1 µM in assay [2] and 0.1 to 1 µM in assay [3].

Regarding `N#Cc1cscc1-c1c(-c2cccs2)n(S(=O)(=O)c2ccc(Cl)cc2)c2ccccc12` [20/4], the EC50 in assay [1] was below 0.1 µM; in assay [2], below 0.1 µM; in assay [3] it was 1 to 10 µM.

Regarding `CS(=O)(=O)NC(=O)C1CC1c1cccc(-c2c(-c3ccsc3C#N)c3ccccc3n2S(=O)(=O)c2ccc(Cl)cc2)c1` (stereo not drawn) [32/1], the results for the half-maximal effective concentration (EC50) in assay [1], in assay [2] and in assay [3] were below 0.1 µM, 0.1 to 1 µM and 0.1 to 1 µM, respectively.

For the compound `N#Cc1sccc1-c1c(-c2cccc(C3CC3C(=O)O)c2)n(S(=O)(=O)C2CC2)c2ccccc12` (stereo not drawn) [30/12], the EC50 in assay [1] lay in the range of 0.1 to 1 µM; in assay [2] it was 1 to 10 µM; in assay [3] it was 1 to 10 µM.

`N#Cc1sccc1-c1c(-c2cccs2)n(S(=O)(=O)c2ccc(Cl)cc2)c2cc(OCCCCC(=O)O)ccc12` [15/5]: the EC50 in assay [1] is below 0.1 µM; in assay [2], below 0.1 µM; in assay [3], 1 to 10 µM.

Regarding `N#Cc1sccc1-c1c(-c2cccs2)n(S(=O)(=O)c2cccc3ccccc23)c2ccccc12` [1/27], the EC50 in assay [1] is below 0.1 µM; in assay [2], 0.1 to 1 µM; in assay [3], 1 to 10 µM.

As to `CS(=O)(=O)c1ccccc1-c1c(-c2cccs2)n(S(=O)(=O)c2ccc(Cl)cc2)c2ccccc12` [20/5], the results for the EC50 in assay [1], in assay [2] and in assay [3] were 0.1 to 1 µM, 0.1 to 1 µM and 1 to 10 µM, respectively.

Take `COc1ccc(S(=O)(=O)n2c(-c3ccccc3)c(-c3ccc4ncccc4c3C#N)c3ccccc32)cc1` [20/20]: the figures for the EC50 in assay [1], in assay [2] and in assay [3] were 0.1 to 1 µM, 1 to 10 µM and 1 to 10 µM, respectively.

Regarding `N#Cc1sccc1-c1c(-c2cccs2)n(S(=O)(=O)c2ccc(Cl)cc2)c2cc(OCCCC(=O)O)ccc12` [15/4], the EC50 was below 0.1 µM in assay [1], 0.1 to 1 µM in assay [2] and 1 to 10 µM in assay [3].

On to `COc1ccc(S(=O)(=O)n2c(-c3ccccc3)c(C3=C(C#N)CCCC3)c3ccccc32)cc1` [20/16], for which the EC50 was 0.1 to 1 µM in assay [1], 0.1 to 1 µM in assay [2] and 1 to 10 µM in assay [3].

Regarding `N#Cc1sccc1-c1c(-c2cc(Cl)cc(C3CC3C(=O)O)c2)n(S(=O)(=O)c2ccc(Cl)cc2)c2ccccc12` (stereo not drawn) [30/9], the values for the EC50 in assay [1], in assay [2] and in assay [3] were below 0.1 µM, 0.1 to 1 µM and 1 to 10 µM, respectively.

`N#Cc1cc(F)ccc1-c1c(-c2cccs2)n(S(=O)(=O)c2ccc(Cl)cc2)c2ccccc12` [20/6]: the EC50 in assay [1] is below 0.1 µM; in assay [2], 0.1 to 1 µM; in assay [3], 0.1 to 1 µM.

Consider `COc1ccc(S(=O)(=O)n2c(-c3ccccc3)c(C3=C(C#N)c4ccccc4CC3)c3ccccc32)cc1` [20/19], for which the EC50 is 0.1 to 1 µM in assay [1], 0.1 to 1 µM in assay [2] and above 10 µM in assay [3].

As for `N#Cc1sccc1-c1c(-c2cccs2)n(S(=O)(=O)c2ccc(Cl)cc2)c2cc(O)ccc12` [13/1], the EC50 in assay [1] is below 0.1 µM; in assay [2], below 0.1 µM; in assay [3], 1 to 10 µM.

As for `N#Cc1sccc1-c1c(-c2cccc(CCCC(=O)O)c2)n(S(=O)(=O)c2ccc(Cl)cc2)c2ccccc12` [30/5], the EC50 in assay [1] was below 0.1 µM; in assay [2], 0.1 to 1 µM; in assay [3], 1 to 10 µM.

On to `NC(=O)c1sccc1-c1c(-c2cccs2)n(S(=O)(=O)c2ccc(Cl)cc2)c2ccccc12` [Example 22], for which the EC50 in assay [1] lay within 0.1 to 1 µM; in assay [2], 0.1 to 1 µM; in assay [3], 1 to 10 µM.
